Test results reported in patent publication US9717248B2, “Antibacterial micro- and nanoparticles comprising a chlorhexidine salt, method of production and uses thereof” (The University of Bristol, priority 2013, dated 2017).
Like-named read-outs stand apart in the source and are kept apart here.

How the values were obtained:
[1] = test system: MRSA; assay: Growth of microorganisms on polyurethane specimens; assay type: cell-based, Staphylococcus aureus; design: key: −: complete inhibition; +: slight growth (growth observed at dilutions between 10^−1-10^−3); ++: moderate growth (growth observed at dilutions between 10^−4-10^−6); +++: high growth (growth at dilutions between 10^−7-10^−12); conditions: 24 h incubation in bacteria growth medium
Description: (§1) Extensive microbiology work has also been completed. […] Key: −complete inhibition; +slight growth (growth observed at dilutions between 10^−1-10^−3); ++ moderate growth (growth observed at dilutions between 10^−4-10^−6); +++ high growth (growth at dilutions between 10^−7-10^−12).

[2] = test system: E. coli; assay: Growth of microorganisms on polyurethane specimens; assay type: cell-based, Escherichia coli; design: key: −: complete inhibition; +: slight growth (growth observed at dilutions between 10^−1-10^−3); ++: moderate growth (growth observed at dilutions between 10^−4-10^−6); +++: high growth (growth at dilutions between 10^−7-10^−12); conditions: 24 h incubation
Description: as §1

[3] = test system: P aeruginosa; assay: Growth of microorganisms on polyurethane specimens; assay type: cell-based, Pseudomonas aeruginosa; design: key: −: complete inhibition; +: slight growth (growth observed at dilutions between 10^−1-10^−3); ++: moderate growth (growth observed at dilutions between 10^−4-10^−6); +++: high growth (growth at dilutions between 10^−7-10^−12); conditions: 24 h incubation
Description: as §1

[4] = test system: K. pneumoniae; assay: Growth of microorganisms on polyurethane specimens; assay type: cell-based, Klebsiella pneumoniae; design: key: −: complete inhibition; +: slight growth (growth observed at dilutions between 10^−1-10^−3); ++: moderate growth (growth observed at dilutions between 10^−4-10^−6); +++: high growth (growth at dilutions between 10^−7-10^−12); conditions: 24 h incubation
Description: as §1

[5] = composite resins supplemented with pulverised CHX diacetate; cited from earlier work
[6] = test system: S. mutans; assay: Reported MIC for S. mutans; assay type: cell-based; conditions: Streptococcus mutans, conversion of the reported 0.125%
[7] = test system: S. mutans; conditions: reported; cited from earlier work
[8] = Elution of CHX from CHX-HMP functionalised materials (UV spectrophotometry); assay type: physicochemical
Protocol: 200 mL of the colloidal suspension was prepared using freshly-prepared reagents (to prevent hydrolysis of the HMP). The specimen was immersed in the rapidly stirred colloid for 30 s, then removed and immersed in deionised water for 10 s to rinse, and then blotted to remove excess liquid and allowed to dry in air.
8 specimens of each material coated with CHX-HMP-5 and CHX-HMP-0.5 nanoparticles were placed in individually labelled cuvettes suitable for ultraviolet spectrophotometry. Deionised water was added to the cuvettes and they were sealed tightly using cuvette lids. These were agitated on an orbital shaker rotating at 150 rpm. The cuvettes were kept sealed and were sampled for chlorhexidine concentration at intervals over a 60-90 day period. Control sets were prepared where the specimens were immersed in deionised water and where they were immersed in a 25 μM CHX solution, which is the concentration of aqueous CHX residual in the CHX-HMP-5 colloidal suspension.

[9] = Elution of CHX from functionalised borosilicate glass surfaces (UV spectrophotometry); assay type: physicochemical; conditions: coated glass coverslips in deionised water, 14-day period
Protocol: Chlorhexidine based salts were prepared by combining, at room temperature and under rapid stirring, 100 mL chlorhexidine (as the digluconate salt in aqueous solution at a concentration of 10 mM) and 100 mL of one of a range of anions in aqueous solution, also at an initial concentration of 10 mM, to effect final total concentrations of 5 mM of each. The precipitate was then allowed to adhere on borosilicate glass coverslips. Coverslips (Agar Scientific, Stansted, UK) were cleaned by 10 minutes ultrasonication in acetone followed by 10 minutes ultrasonication in industrial methylated spirits and allowed to air dry. They were immersed in the 200 mL suspension described above while it was rapidly stirred using a magnetic stirring plate. Coverslips were immersed for 30 seconds, removed, immersed in deionised water for 10 seconds to rinse, blotted to remove excess liquid and allowed to dry in air. The elution of soluble CHX from the functionalised glass surfaces was examined using ultraviolet spectrophotometry. 8 specimens of each type were placed in individually labelled cuvettes suitable for ultraviolet spectrophotometry. 2.5 mL deionised water was added to the cuvettes and they were sealed tightly using cuvette lids. These were agitated on an orbital shaker rotating at 150 rpm. […]

[10] = test system: Methicillin-resistant Staphylococcus aureus (MRSA; NCTC13142); assay: Minimum inhibitory concentration, planktonic bacteria; assay type: cell-based; conditions: 16 h, 37° C., OD 620 nm, listed as 25 μM chlorhexidine
Protocol: (§2) Methicillin-resistant Staphylococcus aureus (MRSA; NCTC13142) was cultured in Mueller-Hinton media. Pseudomonas aeruginosa NCIMB 8626 (ATCC 9027) was cultured in nutrient broth (NB) or nutrient agar (NA). All cultures were incubated at 37° C. aerobically throughout the study.
(§3) Cultures were incubated for 16 h at 37° C. in aerobic conditions, optical density (CD) readings were measured at 620 nm (A620) using a standard microtitre plate reader (SpectroStar Nano; BMG Labtech).

[11] = test system: Pseudomonas aeruginosa NCIMB 8626 (ATCC 9027); assay: as above; assay type: cell-based; conditions: P. aeruginosa, 16 h; value for CHX-HMP-5 is minimum tested
Protocol: as §2, §3

[12] = test system: MRSA biofilm; assay: Static biofilm model (crystal violet); assay type: cell-based, Staphylococcus aureus; conditions: MRSA 48 h static biofilm, 2 h treatment; word qualifies 'disruption'
Protocol: (§4) Bacterial strains were initially grown for 16 h and these stationary phase cultures were harvested by centrifugation, and adjusted to OD650=0.1. Biofilms were grown in 50 μL appropriate media at 37° C. for 48 h, aerobically then the media was removed and discarded. Loosely adherent bacteria were removed by washing the biofilms twice with 100 μl PBS. Chlorhexidine or chlorhexidine nanoparticles diluted in PBS were added to the biofilms using a doubling dilution as described above (0-25 μM). The plates were incubated for 2 h at 37° C.; to estimate biomass, unattached cells were gently aspirated and discarded, and adherent cells were washed twice with PBS and stained with crystal violet (0.25% w/v) for 10 min; following a further two washes with PBS, cell-bound crystal violet was re-solubilized with 7% acetic acid, and absorbance measured at 595 nm (A595).

[13] = test system: P. aeruginosa biofilm; assay: Static biofilm model (crystal violet); assay type: cell-based, Pseudomonas aeruginosa; conditions: P. aeruginosa 48 h static biofilm, 2 h treatment; word qualifies 'disruption'
Protocol: as §4

[14] = test system: MRSA bacteria; assay: Microbiology on EVA samples functionalised with CHX nanoparticles; assay type: cell-based, Staphylococcus aureus; conditions: EVA specimens, 18 h incubation in 1 mL growth medium
Protocol: EVA specimens were functionalised by 30 s immersion in a colloidal suspension of CHX-HMP-5 in water followed by 10 s immersion in deionised water (“low concentration”) or without subsequent immersion in deionised water (“high concentration”). These samples were then exposed to cultures of MRSA bacteria. They were then immersed in 1 mL, growth medium and incubated for 18 h. According to the release experiments in this time the EVA specimen should release around 6 μM per m^2 material. Surface area of the specimen was 0.000182 m^2 so the expected total release should be […] CHX into 1 mL giving a resultant concentration of 1.1 μM CHX.

[15] = result in words, 'Little or no' continues 'significant release'

SMILES: N=C(NCCCCCCNC(=N)NC(=N)Nc1ccc(Cl)cc1)NC(=N)Nc1ccc(Cl)cc1 [80 μM CHX, chlorhexidine]
- growth of microorganisms on polyurethane specimens [1]: ++
- growth of microorganisms on polyurethane specimens [2]: ++
- growth of microorganisms on polyurethane specimens [3]: ++
- growth of microorganisms on polyurethane specimens [4]: ++

SMILES: N=C(NCCCCCCNC(=N)NC(=N)Nc1ccc(Cl)cc1)NC(=N)Nc1ccc(Cl)cc1 [CHX diacetate]
- time to plateau of CHX release [5]: around 7 days

SMILES: N=C(NCCCCCCNC(=N)NC(=N)Nc1ccc(Cl)cc1)NC(=N)Nc1ccc(Cl)cc1 [CHX digluconate]
- MIC [6]: ~1400 µM
- MIC [7]: 0.125 % by mass

SMILES: N=C(NCCCCCCNC(=N)NC(=N)Nc1ccc(Cl)cc1)NC(=N)Nc1ccc(Cl)cc1 [Comparative Example 4, chlorhexidine]
- CHX Release Period [8, 15]: No release

SMILES: N=C(NCCCCCCNC(=N)NC(=N)Nc1ccc(Cl)cc1)NC(=N)Nc1ccc(Cl)cc1 [Comparative Example 5, chlorhexidine]
- CHX Release Period ([8]; functionalised material in deionised water, 60-90 day period): >60 days

SMILES: N=C(NCCCCCCNC(=N)NC(=N)Nc1ccc(Cl)cc1)NC(=N)Nc1ccc(Cl)cc1 [Comparative Example 6, chlorhexidine]
- CHX Release Period [8, 15]: No release

SMILES: N=C(NCCCCCCNC(=N)NC(=N)Nc1ccc(Cl)cc1)NC(=N)Nc1ccc(Cl)cc1 [Comparative Example 7, chlorhexidine]
- CHX Release Period [8, 15]: Little or no

SMILES: N=C(NCCCCCCNC(=N)NC(=N)Nc1ccc(Cl)cc1)NC(=N)Nc1ccc(Cl)cc1 [compound 2, chlorhexidine]
- CHX Release Period [9]: 48 to 72 h

SMILES: N=C(NCCCCCCNC(=N)NC(=N)Nc1ccc(Cl)cc1)NC(=N)Nc1ccc(Cl)cc1 [compound 8, chlorhexidine]
- MIC, soluble CHX conc [10]: not efficacious
- MIC, soluble CHX conc [11]: P.a.: (25 μM)
- Effect on biofilm [12]: MRSA: slight
- Effect on biofilm [13]: P.a.: slight
- recovery of MRSA / efficacy against MRSA [14]: not efficacious
